Source: the NIST ThermoML archive (doi:10.1021/acs.jced.5b00838)

Assays:
[1] = 101.33 kPa, Liquid, Vibrating tube method
[2] = excess molar enthalpy (molar enthalpy of mixing); xn = mol fraction of the nth substance listed; conditions: 100 kPa, Liquid, isothermal titration calorimetry

CCCCCCOCC [1-ethoxyhexane]
[1]
Conditions	mass density [kg/m3]
288.15 K	775.8
293.15 K	771.47
298.15 K	767.15
303.15 K	762.8
308.15 K	758.45
313.15 K	754.06
318.15 K	749.66
323.15 K	745.27

CCCCCCCOC [1-methoxyheptane]
[1]
Conditions	mass density [kg/m3]
288.15 K	783.89
293.15 K	779.71
298.15 K	775.52
303.15 K	771.31
308.15 K	767.09
313.15 K	762.85
318.15 K	758.57
323.15 K	754.3

CCCCCOCCC [1-propoxypentane]
[1]
Conditions	mass density [kg/m3]
288.15 K	773.45
293.15 K	769.12
298.15 K	764.78
303.15 K	760.4
308.15 K	756.01
313.15 K	751.6
318.15 K	747.19
323.15 K	742.73

CCCOCCC(C)C [3-methyl-1-propoxybutane]
[1]
Conditions	mass density [kg/m3]
288.15 K	768.79
293.15 K	764.43
298.15 K	760.04
303.15 K	755.62
308.15 K	751.22
313.15 K	746.78
318.15 K	742.31
323.15 K	737.84

CCCOCCC(C)C [3-methyl-1-propoxybutane] + CC#N
[2]
Conditions	excess molar enthalpy [kcal/mol]
298.15 K, x2 = 0.0312	0.0349
298.15 K, x2 = 0.0606	0.0693
298.15 K, x2 = 0.0882	0.0976
298.15 K, x2 = 0.1142	0.122
298.15 K, x2 = 0.1388	0.144
298.15 K, x2 = 0.1841	0.178
298.15 K, x2 = 0.2249	0.204
298.15 K, x2 = 0.2618	0.224
298.15 K, x2 = 0.3259	0.253
298.15 K, x2 = 0.3798	0.271
298.15 K, x2 = 0.4258	0.281
298.15 K, x2 = 0.4654	0.286
298.15 K, x2 = 0.5079	0.289
298.15 K, x2 = 0.5442	0.289
298.15 K, x2 = 0.5756	0.287
298.15 K, x2 = 0.6028	0.284
298.15 K, x2 = 0.6559	0.274
298.15 K, x2 = 0.6774	0.269
298.15 K, x2 = 0.6994	0.262
298.15 K, x2 = 0.7186	0.255
298.15 K, x2 = 0.7355	0.248
298.15 K, x2 = 0.7504	0.241
298.15 K, x2 = 0.7638	0.234
308.15 K, x2 = 0.0302	0.0413
308.15 K, x2 = 0.0586	0.0789
308.15 K, x2 = 0.0854	0.11
308.15 K, x2 = 0.1107	0.136
308.15 K, x2 = 0.1347	0.158
308.15 K, x2 = 0.1789	0.195
308.15 K, x2 = 0.2188	0.223
308.15 K, x2 = 0.2551	0.245
308.15 K, x2 = 0.2881	0.262
308.15 K, x2 = 0.3183	0.275
308.15 K, x2 = 0.3716	0.293
308.15 K, x2 = 0.4172	0.304
308.15 K, x2 = 0.4567	0.31
308.15 K, x2 = 0.4992	0.313
308.15 K, x2 = 0.5356	0.313
308.15 K, x2 = 0.567	0.311
308.15 K, x2 = 0.5944	0.307
308.15 K, x2 = 0.6231	0.302
308.15 K, x2 = 0.648	0.295
308.15 K, x2 = 0.6698	0.289
308.15 K, x2 = 0.692	0.281
308.15 K, x2 = 0.7115	0.274
308.15 K, x2 = 0.7146	0.269
308.15 K, x2 = 0.7286	0.266
308.15 K, x2 = 0.7356	0.26
308.15 K, x2 = 0.7438	0.259
308.15 K, x2 = 0.7574	0.252
308.15 K, x2 = 0.7579	0.249
308.15 K, x2 = 0.7816	0.236
308.15 K, x2 = 0.8068	0.219
308.15 K, x2 = 0.8337	0.2
308.15 K, x2 = 0.8507	0.186
308.15 K, x2 = 0.8684	0.17
308.15 K, x2 = 0.8869	0.151
308.15 K, x2 = 0.9061	0.13
308.15 K, x2 = 0.9263	0.107
308.15 K, x2 = 0.9401	0.0886
308.15 K, x2 = 0.9544	0.0689
308.15 K, x2 = 0.9691	0.0474
308.15 K, x2 = 0.9843	0.0234

CC#N [acetonitrile]
[1]
Conditions	mass density [kg/m3]
298.15 K	776.51
303.15 K	771.06
308.15 K	765.59
313.15 K	760.1
318.15 K	754.56
323.15 K	748.99

CCCCOCC(C)C [butyl isobutyl ether]
[1]
Conditions	mass density [kg/m3]
288.15 K	764.07
293.15 K	759.72
298.15 K	755.31
303.15 K	750.87
308.15 K	746.45
313.15 K	741.98
318.15 K	737.58
323.15 K	732.99

CCCCOCC(C)C [butyl isobutyl ether] + CC#N
[2], 298.15 K
Conditions	excess molar enthalpy [kcal/mol]
x2 = 0.0314	0.0454
x2 = 0.061	0.0839
x2 = 0.0887	0.116
x2 = 0.1149	0.143
x2 = 0.1396	0.167
x2 = 0.1851	0.204
x2 = 0.2261	0.233
x2 = 0.2631	0.255
x2 = 0.2967	0.273
x2 = 0.3275	0.286
x2 = 0.3815	0.302
x2 = 0.4274	0.31
x2 = 0.4671	0.315
x2 = 0.5097	0.317
x2 = 0.5459	0.316
x2 = 0.5772	0.311
x2 = 0.6045	0.308
x2 = 0.6329	0.301
x2 = 0.6575	0.295
x2 = 0.6789	0.289
x2 = 0.7009	0.282
x2 = 0.7183	0.275
x2 = 0.72	0.275
x2 = 0.7368	0.268
x2 = 0.7392	0.267
x2 = 0.7517	0.261
x2 = 0.7613	0.256
x2 = 0.765	0.254
x2 = 0.7847	0.242
x2 = 0.8097	0.226
x2 = 0.8362	0.207
x2 = 0.853	0.193
x2 = 0.8705	0.177
x2 = 0.8887	0.158
x2 = 0.9077	0.137
x2 = 0.9275	0.112
x2 = 0.9411	0.0935
x2 = 0.9552	0.073
x2 = 0.9697	0.0503
x2 = 0.9846	0.0253
